# Target: T1, Papain (Carica papaya) (UniProt P00784)
# T1 sequence (whole entry): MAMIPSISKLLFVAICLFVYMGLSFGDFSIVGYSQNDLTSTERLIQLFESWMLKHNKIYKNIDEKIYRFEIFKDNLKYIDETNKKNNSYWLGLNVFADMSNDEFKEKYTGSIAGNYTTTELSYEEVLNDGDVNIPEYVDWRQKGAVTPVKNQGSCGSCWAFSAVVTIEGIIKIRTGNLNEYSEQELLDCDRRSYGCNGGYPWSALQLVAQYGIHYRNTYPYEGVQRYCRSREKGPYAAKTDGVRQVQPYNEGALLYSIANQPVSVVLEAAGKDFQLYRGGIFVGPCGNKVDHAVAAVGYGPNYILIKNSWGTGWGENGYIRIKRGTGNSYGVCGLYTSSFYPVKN
# Test: The compound was tested for Rate of Inhibition of Papain.
row,Structure (SMILES),ki/Ki
1,CC(=O)N[C@@H](Cc1ccccc1)C(=O)NNC(=O)OCC(C)C,18 M⁻¹ s⁻¹
2,CC(=O)N[C@@H](Cc1ccccc1)C(=O)NNC(=O)Oc1ccccc1,> 11000 M⁻¹ s⁻¹
3,COC(=O)NNC(=O)[C@H](Cc1ccccc1)NC(C)=O,13 M⁻¹ s⁻¹
4,CC(=O)N[C@@H](Cc1ccccc1)C(=O)NN(C)C(=O)OCC(C)C,0.02 M⁻¹ s⁻¹
